In patent publication US6683096B2, “Indolylpiperidine derivatives as antihistaminic and antiallergic agents” (Almirall Prodesfarma, S.A., priority 1999, dated 2004) one finds IC50, inhibition in vivo and melting point data, which are given here for 32 compounds.

One data set has as its target T1, histamine-H1 receptors (Cavia porcellus, UniProt P31389).
T1 construct: performed in guinea pig cerebellum membranes; from tissue; host or cells: guinea pig cerebellum membranes
As to the kind of experiment: Histamine-H1 receptor binding assay ([3H]-mepyramine, guinea pig cerebellum membranes). The protocol: (1) Histamine-H1 receptor binding assay
Briefly, the membrane suspensions (160 μg/ml) were incubated at 30° C. with 0.7 nM [^3H]- mepyramine and different concentrations of the test compounds in a final volume of 250 μl. Binding reactions were terminated by filtration after 30 min of incubation and the bound radioactivity was determined. The specific binding was measured in the presence of 10 μM of promethazine. The affinity of each test compound to the receptor was determined by using at least six different concentrations run in duplicate. IC50 values were obtained by non-linear regression by use of SAS on a DEC AXP computer.

Data set [1] relates to histamine-induced skin vascular permeability in rats. As to the kind of experiment: Histamine-induced skin vascular permeability in rats. In kind it is in vivo. Conditions: Rattus norvegicus, po; 3 mg/Kg orally, 4 hours after administration, male Wistar rats; read-out: inhibition of the histamine-induced wheal. The protocol: (2) Histamine-induced skin vascular permeability in rats
Male Wistar rats (180-210 g) were treated orally with the test compound or vehicle. One, 4, 8 and 24 hours later, the rats were lightly anaesthetized with ether. The cutaneous reaction was induced by two intradermal injections of 50 μl of histamine (100 μg/ml) onto the back, followed by a intravenous injection of 3 ml/kg of Evan's Blue (5 mg/ml), both dissolved in saline. Sixty min later, the rats were killed by cervical dislocation and the back skin dissected free. The diameter (in millimeters) of the wheal was measured in two directions and the area was calculated.

Setting [2] is: guinea pig cerebellum membranes, 0.7 nM [3H]-mepyramine, read-out: BINDING TO RECEPTOR H1 ( IC50 nM ).

Where two headings read alike, the source gives them in different places. A value given as a limit tells only on which side of the number the result lay.

T1 sequence (P31389 whole entry): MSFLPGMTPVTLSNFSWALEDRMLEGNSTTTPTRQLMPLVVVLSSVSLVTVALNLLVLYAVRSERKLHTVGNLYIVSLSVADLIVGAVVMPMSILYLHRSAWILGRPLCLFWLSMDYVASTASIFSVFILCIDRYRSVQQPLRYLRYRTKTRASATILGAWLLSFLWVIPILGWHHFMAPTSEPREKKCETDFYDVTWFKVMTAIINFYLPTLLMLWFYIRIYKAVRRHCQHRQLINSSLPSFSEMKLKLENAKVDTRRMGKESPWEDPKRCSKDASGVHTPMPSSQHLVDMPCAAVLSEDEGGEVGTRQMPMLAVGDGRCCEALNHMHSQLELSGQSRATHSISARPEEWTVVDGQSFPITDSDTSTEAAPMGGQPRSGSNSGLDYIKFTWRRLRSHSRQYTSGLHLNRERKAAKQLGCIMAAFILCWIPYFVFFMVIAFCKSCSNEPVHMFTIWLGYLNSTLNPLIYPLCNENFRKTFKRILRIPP

`CCCCCn1cc(C2CCN(CCOc3ccccc3C(=O)O)CC2)c2ccccc21` [Example 2, 2-{2-[4-(1-pentyl-1H-indol-3-yl)-piperidin-1-yl]-ethoxy}-benzoic acid] yielded a melting point of 113 °C. Moreover, the IC50 at histamine-H1 receptors (setting [2]) amounted to 57 nM. For the same compound, the inhibition in vivo at 3 mg/kg in data set [1] was more than 50%.

In the case of `O=C(O)c1ccccc1OCCN1CCC(c2cn(Cc3ccc(F)cc3)c3ccccc23)CC1` [Example 1, 2-(2-{4-[1-(4-fluoro-benzyl)-1H-indol-3-yl]-piperidin-1-yl}-ethoxy)-benzoic acid], at histamine-H1 receptors (setting [2]), the IC50 stood at 310 nM. With `COCCn1cc(C2CCN(CCOc3ccccc3C(=O)O)CC2)c2ccccc21` [Example 140, 2-(2-{4-[1-(2-methoxy-ethyl)-1H-indol-3-yl]-piperidin-1-yl}-ethoxy)-benzoic acid], the melting point lay within 139 to 140 °C. Also, the IC50 on histamine-H1 receptors (setting [2]) worked out at 83 nM. The inhibition in vivo at 3 mg/kg in data set [1] is more than 50%. Taken in the same sequence, the figures for `O=C(O)c1ccccc1OCCN1CCC(c2cn(CC3CC3)c3cc(F)ccc23)CC1` [Example 150, 2-{2-[4-(1-cyclopropylmethyl-6-fluoro-1H-indol-3-yl)-piperidin-1-yl]-ethoxy}-benzoic acid] were 97 °C, 121 nM and more than 50%. For `CCOCCn1cc(C2CCN(CCC(=O)O)CC2)c2ccccc21` [Example 153, 3-{4-[1-(2-ethoxy-ethyl)-1H-indol-3-yl]-piperidin-1-yl}-propionic acid], at histamine-H1 receptors (setting [2]), the IC50 amounted to 245 nM.

Consider `CCOCCn1cc(C2CCN(CCOc3cccc(C(=O)O)c3)CC2)c2ccccc21` [Example 10], for which the IC50 on histamine-H1 receptors (setting [2]) was found to be 145 nM. `O=C(O)c1ccccc1OCCN1CCC(c2c[nH]c3ccccc23)CC1` [Example 151, 2-{2-[4-(1H-indol-3-yl)-piperidin-1-yl]-ethoxy}-benzoic acid] yielded a melting point of 230 °C. In the case of `O=C(O)COCCN1CCN(C(c2ccccc2)c2ccc(Cl)cc2)CC1` (stereo not drawn) [CETIRIZINE, reference compound], the IC50 on histamine-H1 receptors (setting [2]) is 226 nM. On the same count and under the same terms, to `CCOCCn1cc(C2CCN(CCOc3cccc(F)c3C(=O)O)CC2)c2cccc(Br)c21` [Example 85, 2-(2-{4-[7-bromo-1-(2-ethoxy-ethyl)-1H-indol-3-yl]-piperidin-1-yl}-ethoxy)-6-fluoro-benzoic acid] belongs 152 nM. With `CC(C)OCCn1cc(C2CCN(CCOc3ccccc3C(=O)O)CC2)c2ccccc21` [Example 108, 2-(2-{4-[1-(2-iso-propoxy-ethyl)-1H-indol-3-yl]-piperidin-1-yl}-ethoxy)-benzoic acid], at histamine-H1 receptors (setting [2]), the IC50 was determined as 275 nM. Besides, the inhibition in vivo at 3 mg/kg in data set [1] is more than 50%.

With `CCOCCn1cc(C2CCN(CCCC(=O)O)CC2)c2ccccc21` [Example 3, 4-{4-[1-(2-ethoxy-ethyl)-1H-indol-3-yl]-piperidin-1-yl}-butyric acid], the IC50 at histamine-H1 receptors (setting [2]) was found to be 347 nM. `C=CCn1cc(C2CCN(CCOc3ccccc3C(=O)O)CC2)c2ccccc21` [Example 141, 2-{2-[4-(1-allyl-1H-indol-3-yl)-piperidin-1-yl]-ethoxy}-benzoic acid] had a melting point of 123 to 125 °C. Also, on histamine-H1 receptors (setting [2]), the IC50 was determined as 97 nM. The inhibition in vivo at 3 mg/kg in data set [1] was more than 50%. For the compound `CCCCCCn1cc(C2CCN(CCOc3ccccc3C(=O)O)CC2)c2ccccc21` [Example 149, 2-{2-[4-(1-hexyl-1H-indol-3-yl)-piperidin-1-yl]-ethoxy}-benzoic acid], the IC50 at histamine-H1 receptors (setting [2]) came out at 142 nM. Besides, in data set [1], the inhibition in vivo at 3 mg/kg was more than 50%.

The compound `O=C(O)Cc1ccc(OCCCN2CCC(c3cn(CC4CC4)c4ccccc34)CC2)cc1` [Example 159, (4-{3-[4-(1-cyclopropylmethyl-1H-indol-3-yl)-piperidin-1-yl]-propoxy}-phenyl)-acetic acid] showed a melting point of 83 to 85 °C. Besides, on histamine-H1 receptors (setting [2]), the IC50 came to 68 nM. `CCOCCn1cc(C2CCN(CCOc3ccc(C)cc3C(=O)O)CC2)c2cc(OC)ccc21` [Example 142, 2-(2-{4-[1-(2-ethoxy-ethyl)-5-methoxy-1H-indol-3-yl]-piperidin-1-yl}-ethoxy)-5-methyl-benzoic acid] showed a melting point of 144 to 146 °C. For the same compound, the IC50 at histamine-H1 receptors (setting [2]) stood at 386 nM. The inhibition in vivo at 3 mg/kg in data set [1] was more than 50%. As for `O=C(O)c1cccc(CN2CCC(c3cn(CC4CC4)c4ccccc34)CC2)c1` [Example 158, 3-[4-(1-cyclopropylmethyl-1H-indol-3-yl)-piperidin-1-ylmethyl]-benzoic acid], the melting point turned out to be 207 °C. The IC50 on histamine-H1 receptors (setting [2]) came to 104 nM. Further, the inhibition in vivo at 3 mg/kg in data set [1] was more than 50%.

As for `CCOCCn1cc(C2CCN(Cc3cccc(C(=O)O)c3)CC2)c2ccccc21` [Example 66, 3-{4-[1-(2-ethoxy-ethyl)-1H-indol-3-yl]-piperidin-1-ylmethyl}-benzoic acid], the IC50 at histamine-H1 receptors (setting [2]) was found to be 248 nM. The compound `COCCOCCn1cc(C2CCN(Cc3ccc(C(=O)O)o3)CC2)c2ccccc21` [Example 40, 5-(4-{1-[2-(2-methoxy-ethoxy)-ethyl]-1H-indol-3-yl}-piperidin-1-yl-methyl)-furan-2-carboxylic acid] registered a melting point of 159 °C. At histamine-H1 receptors (setting [2]), the IC50 came to 210 nM. Take `CCOCCn1cc(C2CCN(CCOc3ccc(C)cc3C(=O)O)CC2)c2cccc(Br)c21` [Example 143, 2-(2-{4-[7-bromo-1-(2-ethoxy-ethyl)-1H-indol-3-yl]-piperidin-1-yl}-ethoxy)-5-methyl-benzoic acid]: the IC50 on histamine-H1 receptors (setting [2]) was determined as 222 nM. For the compound `CCOCCn1cc(C2CCN(CCCOc3cccc(C(=O)O)c3)CC2)c2ccccc21` [Example 19, 3-(3-{4-[1-(2-ethoxy-ethyl)-1H-indol-3-yl]-piperidin-1-yl}-propoxy)-benzoic acid], the IC50 on histamine-H1 receptors (setting [2]) came to 89 nM. `CC(C)CCn1cc(C2CCN(CCOc3ccccc3C(=O)O)CC2)c2ccccc21` [Example 139, 2-(2-{4-[1-(3-methyl-butyl)-1H-indol-3-yl]-piperidin-1-yl}-ethoxy)-benzoic acid] yielded a melting point of 150 to 151 °C. The IC50 at histamine-H1 receptors (setting [2]) is 205 nM. As to `CCOCCn1cc(C2CCN(CCc3ccc(C=CC(=O)O)cc3)CC2)c2ccccc21` [Example 32, 3-[4-(2-{4-[1-(2-ethoxy-ethyl)-1H-indol-3-yl]-piperidin-1-yl}-ethyl)-phenyl]-acrylic acid], the half-inhibitory concentration (IC50) on histamine-H1 receptors (setting [2]) is 59 nM. As for `CCCCn1cc(C2CCN(CCOc3ccccc3C(=O)O)CC2)c2ccccc21` [Example 148, 2-{2-[4-(1-butyl-1H-indol-3-yl)-piperidin-1-yl]-ethoxy}-benzoic acid], the IC50 at histamine-H1 receptors (setting [2]) stood at 127 nM. In addition, in data set [1], the inhibition in vivo at 3 mg/kg is more than 50%. As for `CCCCCn1cc(C2CCN(CCCOc3ccccc3C(=O)O)CC2)c2ccccc21` [Example 15, 2-{3-[4-(1-pentyl-1H-indol-3-yl)-piperidin-1-yl]-propoxy}-benzoic acid], the IC50 at histamine-H1 receptors (setting [2]) is 88 nM.

In the case of `CCOCCn1cc(C2CCN(CCOc3ccc(C)cc3C(=O)O)CC2)c2cc(F)ccc21` [Example 145, 2-(2-{4-[1-(2-ethoxy-ethyl)-5-fluoro-1H-indol-3-yl]-piperidin-1-yl}-ethoxy)-5-methyl-benzoic acid], the IC50 at histamine-H1 receptors (setting [2]) was determined as 116 nM. Compound `CCCCCn1cc(C2CCN(CCOCC(=O)O)CC2)c2ccccc21` [Example 38, {2-[4-(1-pentyl-1H-indol-3-yl)-piperidin-1-yl]-ethoxy}-acetic acid] showed an IC50 at histamine-H1 receptors of 174 nM. With `O=C(O)c1cccc(CN2CCC(c3c[nH]c4ccccc34)CC2)c1` [Example 54, 3-[4-(1H-indol-3-yl)-piperidin-1-ylmethyl]-benzoic acid], the IC50 at histamine-H1 receptors (setting [2]) worked out at 106 nM.

For `CCOCCn1cc(C2CCN(CCOc3ccccc3C(=O)O)CC2)c2ccccc21` [Example 138, 2-(2-{4-[1-(2-ethoxy-ethyl)-1H-indol-3-yl]piperidin-1-yl}-ethoxy)-benzoic acid], the IC50 at histamine-H1 receptors (setting [2]) was determined as 86 nM. In addition, the inhibition in vivo at 3 mg/kg in data set [1] is more than 50%.

In the case of `CCOCCn1cc(C2CCN(CCOc3ccc(C(=O)O)cc3)CC2)c2ccccc21` [Example 137, 4-(2-{4-[1-(2-ethoxy-ethyl)-1H-indol-3-yl]piperidin-1-yl}-ethoxy)-benzoic acid], at histamine-H1 receptors (setting [2]), the IC50 worked out at 150 nM. For `C=CCOCCn1cc(C2CCN(CCOc3ccccc3C(=O)O)CC2)c2ccccc21` [Example 134, 2-(2-{4-[1-(2-allyloxy-ethyl)-1H-indol-3-yl]-piperidin-1-yl}-ethoxy)-benzoic acid], at histamine-H1 receptors (setting [2]), the 50% inhibitory concentration (IC50) amounted to 86 nM. As for `CCOCCn1cc(C2CCN(CCOc3ccc(C)cc3C(=O)O)CC2)c2ccccc21` [Example 154, 2-(2-{4-[1-(2-ethoxy-ethyl)-1H-indol-3-yl]-piperidin-1-yl}-ethoxy)-5-methyl-benzoic acid], the melting point was in the range of 109 to 112 °C. Regarding `CCCCCn1cc(C2CCN(CCCC(O)c3ccc(C(C)(C)C(=O)O)cc3)CC2)c2ccccc21` (stereo not drawn) [Example 34, 2-(4-{1-hydroxy-4-[4-(1-pentyl-1H-indol-3-yl)-piperidin-1-yl]-butyl}-phenyl)-2-methyl-propionic acid], the IC50 on histamine-H1 receptors (setting [2]) came out at 127 nM.

As a reminder, the IC50 is the midpoint of a concentration-inhibition curve. One may read the melting point as the temperature, or range, at which the solid turns liquid.
